Experimental data as given in PubChem BioAssay (NCI).
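A five-concentration, 48-hour dose response in 96-well plates underlies each endpoint, interpolated linearly between surrounding concentrations. At the GI50, growth is halved. The concentration for full growth arrest is given as TGI.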

Columns and labels:
Assay in all cases: DTP human tumour cell line panel, 48 h
NCI-H522 lung = test system: NCI-H522 lung
SF-539 CNS = test system: SF-539 CNS
M14 melanoma = test system: M14 melanoma
SK-OV-3 ovarian = test system: SK-OV-3 ovarian
HCT-116 colon = test system: HCT-116 colon
NCI-H226 lung = test system: NCI-H226 lung
UACC-257 melanoma = test system: UACC-257 melanoma
EKVX NSCLC = test system: EKVX NSCLC
T-47D breast = test system: T-47D breast
MDA-MB-435 = test system: MDA-MB-435
SNB-19 CNS = test system: SNB-19 CNS
MOLT-4 leukemia = test system: MOLT-4 leukemia
UACC-62 melanoma = test system: UACC-62 melanoma
HOP-62 NSCLC = test system: HOP-62 NSCLC
786-0 renal = test system: 786-0 renal
HOP-92 NSCLC = test system: HOP-92 NSCLC
HCC-2998 colon = test system: HCC-2998 colon
DU-145 prostate = test system: DU-145 prostate
NCI/ADR-RES ovarian = test system: NCI/ADR-RES ovarian
OVCAR-4 ovarian = test system: OVCAR-4 ovarian
LOX IMVI melanoma = test system: LOX IMVI melanoma
TK-10 renal = test system: TK-10 renal
U251 CNS = test system: U251 CNS
SK-MEL-5 melanoma = test system: SK-MEL-5 melanoma
ACHN renal = test system: ACHN renal
IGROV1 ovarian = test system: IGROV1 ovarian

COc1cc2c3c(n(CCCNC4CCCC4)c(=O)c2cc1OC)-c1cc2c(cc1C3=O)OCO2
GI50 (NCI-H522 lung): 5.26 µM | TGI (NCI-H522 lung): 32 µM | GI50 (SF-539 CNS): 1.51 µM | TGI (SF-539 CNS): 2.98 µM | GI50 (M14 melanoma): 1.48 µM | TGI (M14 melanoma): 2.9 µM | GI50 (SK-OV-3 ovarian): 12.7 µM | TGI (SK-OV-3 ovarian): 26.4 µM | GI50 (HCT-116 colon): 1.2 µM | TGI (HCT-116 colon): 2.67 µM | GI50 (NCI-H226 lung): 17.8 µM | TGI (NCI-H226 lung): 42 µM | GI50 (UACC-257 melanoma): 15.8 µM | TGI (UACC-257 melanoma): 30.3 µM | GI50 (EKVX NSCLC): 4.64 µM | TGI (EKVX NSCLC): 17 µM | GI50 (T-47D breast): 16.6 µM | TGI (T-47D breast): 36.2 µM | GI50 (MDA-MB-435): 1.65 µM | TGI (MDA-MB-435): 3.19 µM | GI50 (SNB-19 CNS): 2.96 µM | TGI (SNB-19 CNS): 25.5 µM | GI50 (MOLT-4 leukemia): 0.0486 µM | TGI (MOLT-4 leukemia): 3.37 µM | GI50 (UACC-62 melanoma): 13 µM | TGI (UACC-62 melanoma): 30.2 µM | GI50 (HOP-62 NSCLC): 2.38 µM | TGI (HOP-62 NSCLC): 20.9 µM | GI50 (786-0 renal): 1.61 µM | TGI (786-0 renal): 3.24 µM | GI50 (HOP-92 NSCLC): 12.5 µM | TGI (HOP-92 NSCLC): 26.1 µM | GI50 (HCC-2998 colon): 3.45 µM | TGI (HCC-2998 colon): 15.7 µM | GI50 (DU-145 prostate): 1.44 µM | TGI (DU-145 prostate): 2.82 µM | GI50 (NCI/ADR-RES ovarian): 2.25 µM | TGI (NCI/ADR-RES ovarian): 15.7 µM | GI50 (OVCAR-4 ovarian): 1.91 µM | TGI (OVCAR-4 ovarian): 3.99 µM | GI50 (LOX IMVI melanoma): 1.03 µM | TGI (LOX IMVI melanoma): 2.33 µM | GI50 (TK-10 renal): 22 µM | TGI (TK-10 renal): 36.8 µM | GI50 (U251 CNS): 1.27 µM | TGI (U251 CNS): 2.57 µM | GI50 (SK-MEL-5 melanoma): 17.3 µM | TGI (SK-MEL-5 melanoma): 31.2 µM | GI50 (ACHN renal): 1.49 µM | TGI (ACHN renal): 2.84 µM | GI50 (IGROV1 ovarian): 1.4 µM | TGI (IGROV1 ovarian): 3.65 µM
